# Test results: US11786555B2, “RAR selective agonists in combination with immune modulators for cancer immunotherapy” (IO THERAPEUTICS, INC., priority 2017, dated 2023)
# How the values were obtained:
# [1] = system: H929 cells and CD138+ primary MM cells; assay: qRT-PCR of B cell and PC markers in MM cells, liquid or BM stroma co-culture; format: cell-based, human
# Method: FIG. 3A-H depicts the relative concentration of plasma markers BCL6 (FIG. 3A and E), BLIMP-1 (FIG. 3B and F), XBPS-1 (FIG. 3C and G), and CHOP (FIG. 3D and H) in multiple myeloma (MM) cell lines H929 (FIG. 3A-D) or CD138+ MM cells from three different patient samples (FIG. 3E-H) incubated for 5 days either in the absence of stroma (Liquid), with or without AGN (RA receptor antagonist AGN194310, 1 μM), or co-cultured with BM mesenchymal cells (Stroma), with or without R115 (CYP26 inhibitor R115866, 1 μM) or IRX (CYP26-resistant retinoid IRX5183, 1 μM). Expression in untreated liquid conditions was set at 1. Data are representative of 3 independent experiments with similar results and represent the mean ±SEM. *P≤0.05 and **P≤0.01, by repeated-measures 1-way ANOVA for determination of statistical significance between groups; P values were corrected for multiple comparisons using Dunnett's test. Ctrl, control; max, maximum.
# (§1) Coculture experiments. 24-well plates were coated with 0.1% gelatin in PBS for 30 min at 37° C. The gelatin solution was removed, and the stromal cells were cultured overnight at a density of 5×10^4 cells/well to obtain a confluent monolayer. At that time, MM cell lines or primary MM cells (1×10^5 in 2 ml) were added to the stroma cultures. The stroma cocultures were incubated at 37° C. in RPMI containing 10% FCS, L-glutamine, and P/S, with or without AGN194310 (1 μM for 5 days), R115866 (1 μM for 5 days), IRX5183 (1 μM for 5 days), or BTZ (2.5 nM for 48 hr).
# qRT-PCR. Total RNA was extracted using the RNeasy Mini Kit (QIAGEN) according to the manufacturer's instructions. cDNA was synthesized by reverse transcription using the iScript cDNA Synthesis Kit (Bio-Rad). qRT-PCR was performed with iTaq SYBR Green Supermix (Bio-Rad) using sequence specific primers. Gene expression was normalized to GAPDH, and relative quantification was calculated using ΔΔCt. All experiments were performed in duplicate and run on the Bio-Rad CFX96 machine.
# The BM microenvironment (also called “niche”) limits PC differentiation by modulating retinoid signaling. A population of MM progenitors, phenotypically similar to B cells, is intrinsically resistant to BTZ and contributes to MRD and relapse. To investigate whether the BM niche plays a role in determining the phenotype of MM cells, the mRNA expression of B cell and PC markers in MM H929 cell lines (FIG. 3A-D) and MM CD138+ primary cells (FIG. 3E-H) was analyzed following co-culture with mouse BM stroma using human-specific primers. […] In contrast, co-culture of MM cells with BM stroma decreased the mRNA expression of B lymphocyte-induced maturation protein 1 (BLIMP1) and spliced X box-binding protein 1 (XBP1s) (FIG. 3B, C, F, G), which are critical mediators of PC differentiation.
# The BM niche regulates hematopoietic stem cell (HSC) differentiation by expressing the retinoid-inactivating enzyme CYP26. CYP26 enzymes were highly expressed in BM mesenchymal cells, while their expression was barely detectable in MM cells. Since retinoid signaling promotes PC differentiation and potentiates Ig secretion, it was determined whether stromal CYP26 is responsible for inducing a B cell phenotype in MM cells. To this end, co-culture conditions were treated with the CYP26 inhibitor R115866 (R115) or the CYP26-resistant RA receptor α-selective (RARα-selective) retinoid IRX5183 (IRX).
# [2] = system: H929 Luc+ cells; assay: systemic MM xenograft, bioluminescence; format: in vivo, mouse; details: 4 weeks
# Method: FIG. 6 depicts bioluminescent images of systemic MM xenografts. Following engraftment of H929 Luc+ cells, mice were treated with IRX (n=4), BTZ (n=5), or a combination of both (n=5) for 4 weeks. Data represent the mean±SEM of the fold change in bioluminescence (photons/second) from day 0.
# For the systemic MM model, 2×10^6 Luc+/GFP+ H929 cells were injected via the tail vein into 16-week-old male NSG mice. After engraftment, as determined by an exponential increase in bioluminescence, mice were treated with BTZ (0.5 mg/kg i.p.) twice weekly and with IRX (10 mg/kg) once daily. Tumor burden was assessed by bioluminescence, as above.
# To test whether retinoids can enhance BTZ activity in MM, a systemic MM xenograft was developed by injecting 2×10^6 H929 luciferase+ (Luc+) cells via the tail vein of non-obese, diabetic, severe combined immunodeficiency IL-2 receptor y-KO (NSG) mice. The animals were randomized to receive IRX, BTZ, or a combination of both, and disease burden was followed weekly by bioluminescence imaging (FIG. 6).
# [3] = system: H929 cells and primary CD138+ MM cells; assay: clonogenic or cellular recovery of MM cells after BTZ treatment; format: cell-based, human; details: stroma co-culture, 1 μM for 5 days, then BTZ 2.5 nM
# Method: FIG. 4A-B depicts the clonogenic recovery (CFU) of H929 cells (FIG. 4A) or cellular recovery of primary CD138+ MM cells from 3 different patient samples (FIG. 4B). MM cells were treated with bortezomib (BTZ; 2.5 nM) for 48 hours after being incubated for 5 days either in the absence of stroma (Liquid), with or without the pan-RAR inhibitor AGN (1 μM), or in the presence of BM mesenchymal cells (Stroma), with or without the CYP26 inhibitor R115 (1 μM) or the CYP26-resistant retinoid IRX (1 μM). Clonogenic or cellular recovery was normalized to each condition in the absence of BTZ.
# as §1
# Clonogenic assays. After treatment, MM cells were collected, washed with PBS, and plated at a density of 5,000 cells/ml in 1 ml of 1.32% methylcellulose supplemented with 30% FBS, 10% BSA, L-glutamine, P/S, and 0.1 mM β-ME. Cells were plated in triplicate in 35-mm culture dishes, incubated at 37° C., and scored for the presence of colonies 14 days later.
# A RA-low microenvironment induces BTZ resistance. To determine whether decreased retinoid signaling contributes to BTZ resistance within the BM niche, MM cell lines and MM CD138+ primary cells were incubated with BM stroma for 5 days, followed by BTZ treatment.
smiles,measurement,setting,value
CC1(C)CCC(C)(C)c2c1cc(C(=O)Nc1cc(F)c(C(=O)O)c(F)c1)c(O)c2Cl [IRX5183],expression of differentiation markers by qRT-PCR or flow cytometry,[1]; liquid conditions compared with BM stroma,"induced comparable changes, irrespective of the presence or absence of BM stroma"
same,"mRNA expression of B cell and PC markers (BCL6, BLIMP1, XBP1s, CHOP)","[1]; stroma co-cultures, 1 μM for 5 days",restored all markers to levels comparable to those of liquid control conditions
same,disease burden (bioluminescence),[2]; combination of IRX 10 mg/kg daily and BTZ 0.5 mg/kg twice weekly,significant (P<0.01) decrease in disease burden
same,tumor burden (bioluminescence),"[2]; monotherapy, BTZ 0.5 mg/kg i.p. twice weekly, IRX 10 mg/kg once daily",decrease in tumor burden compared with untreated mice
same,effect on stroma-induced BTZ resistance,[3],overcome
